These results are taken from PubChem BioAssay (NCI).

What all share (test): NCI tumour cell line growth inhibition, 48 h
In assay [1] the test system is OVCAR-4 ovarian.
Assay [2] concerns MDA-MB-231 breast.
Assay [3] has as its system SN12C renal.
The subject of assay [4] is SNB-19 CNS.
Assay [5] has as its system NCI-H226 lung.
In assay [6] the test system is MCF7 breast.
Assay [7] concerns HOP-92 NSCLC.
The subject of assay [8] is HCT-15 colon.
Assay [9] has as its system SK-MEL-2 melanoma.
Assay [10] relates to SR leukemia.

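Compound exposure: 48 hours, 5 concentrations, 96-well plates. GI50 is the concentration that inhibits growth by half. TGI denotes the concentration required for complete inhibition of growth.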 A value given as a limit tells only on which side of the number the result lay.

`CCOC(=O)c1nc2ccc(C(F)(F)F)cc2nc1Oc1cc(OC)cc(OC)c1`: the TGI in [1] is 95.1 µM; in assay [2], above 100 µM; in [3], above 100 µM; in assay [4] it was above 100 µM; in [5], above 100 µM; in [6] it was above 100 µM. Moreover, the TGI in [7], in [8] and in assay [9] was above 100 µM each time.

In the case of `NNC(=O)Cn1c2ccc(Br)cc2c2nc3ccccc3nc21`, the TGI in [2], in [3], in [4], in assay [10], in [5] and in [6] was above 100 µM throughout. Moreover, the TGI in [9] is above 100 µM.

For the compound `OC(CCNCc1ccccc1)c1ccc2ccccc2c1` (stereo not drawn), the TGI in assay [1] amounted to 72.9 µM; in assay [2] it was 35.3 µM; in assay [3], 72.2 µM; in [4], 47.9 µM; in [10], 98.3 µM; in [5], 46.7 µM. Further, the TGI came out at 54.3 µM in [6], 38.8 µM in assay [8] and 38.9 µM in assay [9].

Turning to `CC(=O)Nc1ccc(OC2=CCN(C)CC2)cc1`, the TGI in [1], in assay [2], in assay [3], in [4], in assay [10] and in assay [5] was above 100 µM in each case. In addition, the TGI in assay [6], in [8] and in [9] was above 100 µM throughout.

Take `O=C(O)c1ccn(-c2cccc(-n3ccc(C(=O)O)n3)n2)n1`: the TGI in assay [1], in [2], in assay [3], in [4], in assay [10] and in assay [5] was above 100 µM in each case. Also, the TGI in assay [6], in assay [8] and in [9] was above 100 µM in each case.

With `CC[N+]1(C)CCC(O)(c2ccc(Cl)c(Cl)c2)C(C(=O)c2ccc(Cl)c(Cl)c2)C1` (stereo not drawn), the TGI in assay [1], in assay [3], in [4], in assay [10], in [5] and in [6] was above 10 µM in each case. The TGI in assay [7], in assay [8] and in assay [9] was above 10 µM each time.

On to `C/C(Nc1ccc(F)cc1)=C1/CCOC1=O`, for which the TGI in assay [1], in assay [2], in [3], in [4], in [10] and in assay [5] was above 100 µM throughout. For the same compound, the TGI in assay [7] and in assay [8] was above 100 µM throughout.

As to `CCOC(=O)C(NC(=O)CC)(Nc1cc(C)on1)C(F)(F)F` (stereo not drawn), the TGI in assay [3], in assay [4], in assay [10], in assay [8] and in assay [9] was above 100 µM in each case.

Consider `COc1ccc(/C=C2\S/C(=N/Nc3nc(-c4ccccc4)cs3)NC2=O)cc1OC`, for which the TGI was 98.1 µM in assay [1]; 75.7 µM in [2]; above 100 µM in assay [3]; 89.9 µM in [4]; above 100 µM in assay [6]; 35.2 µM in [7]. The TGI in assay [8] was 69 µM; in [9], 47.5 µM.

On to `O=c1ccn(CC2(CO)CC(Cc3ccccc3)C2)c(=O)[nH]1` (stereo not drawn), for which the TGI in assay [1], in assay [2], in assay [3], in [10], in assay [5] and in [6] was above 100 µM each time. The TGI in assay [8] and in assay [9] was above 100 µM throughout.

`CC1CC/C(=C\c2ccc(Cl)cc2)C2OC(N)=C(C#N)C(c3ccc(Cl)cc3)=C12` (stereo not drawn): the TGI in assay [2] came out at 23.7 µM; in [3], 26.5 µM; in assay [4] it was 39.6 µM; in assay [5], 27.1 µM; in assay [6], 29.8 µM; in assay [8], 23.1 µM. In addition, the TGI in assay [9] amounted to 27.2 µM.

As to `CC1(c2ccc[n+](Cc3ccccc3)c2)OCCO1`, the TGI in [1], in [3], in assay [4], in assay [10], in assay [5] and in assay [8] was above 100 µM in each case. This compound also yielded a TGI in assay [9] above 100 µM.

With `C(CCCCc1nnc(N2CCCCC2)o1)CCCc1nnc(N2CCCCC2)o1`, the TGI in [1], in [2], in assay [3], in assay [4], in assay [5] and in [6] was above 100 µM in each case. Besides, the TGI in assay [7], in assay [8] and in [9] was above 100 µM throughout.

Turning to `c1cn(C23C4C5C6C4C2C6C53)cn1` (stereo not drawn), the TGI in assay [2], in assay [3], in assay [4], in assay [10], in [5] and in [6] was above 100 µM throughout. Also, the TGI in [8] and in assay [9] was above 100 µM throughout.

For `CN1CCN(CCCBr)CC1`, the TGI in assay [1], in [2], in [3], in assay [4], in assay [5] and in assay [6] was above 100 µM in each case. In addition, the TGI in assay [7], in assay [8] and in assay [9] was above 100 µM in each case.

Turning to `CC1(C)[C@H]2CC[C@]1(C)[C@H](OC(=O)NNC(=O)O[C@@H]1C[C@@H]3CC[C@@]1(C)C3(C)C)C2`, the TGI came out at 24.1 µM in [1]; 27.6 µM in [2]; 24.7 µM in [3]; 39.1 µM in assay [4]; 34.1 µM in assay [5]; 26.4 µM in assay [6]. Further, the values for the TGI in [7], in [8] and in assay [9] were 33.6 µM, 27.5 µM and 32.5 µM, respectively.

For `CSC1=N/C(=C\c2ccco2)C(=O)N1CN1CCOCC1`, the TGI is above 100 µM in assay [1]; above 100 µM in [2]; above 88.7 µM in assay [3]; above 100 µM in [4]; above 92.6 µM in assay [10]; above 100 µM in assay [5]. Moreover, the TGI in [6], in assay [8] and in [9] was above 100 µM each time.

For `COC1OC2COC1(OC)C1OC(C)(C)OC21` (stereo not drawn), the TGI in assay [1], in assay [2], in [3], in assay [4], in assay [10] and in assay [5] was above 100 µM in each case. Further, the TGI in assay [6], in assay [8] and in [9] was above 100 µM in each case.

Take `C/C=C(/C)C(=O)O[C@H](C[C@@H](C)[C@H]1CC(c2ccoc2)OC1=O)[C@@]1(C)C(=O)CCC2O[C@]21C` (stereo partly drawn): the TGI in assay [1], in assay [2], in [4], in assay [10], in assay [5] and in [6] was above 100 µM each time. In addition, the TGI in [8] and in [9] was above 100 µM in each case.

Take `COc1ccc(-c2cc(-c3ccc(Nc4ccnc5cc(Cl)ccc45)cc3)[nH]c(=O)c2C#N)c2ccccc12`: the TGI in [2] was 51.1 µM; in [3], 46.9 µM; in assay [4] it was above 23.4 µM; in [10] it was 2.6 µM; in assay [5], above 100 µM; in [7], 30.8 µM. Also, the TGI in assay [8] and in assay [9] was above 100 µM in each case.

With `C=C(CO[Si](C)(C)C(C)(C)C)C(C)=O`, the TGI in [1] is 44.4 µM; in assay [2] it was 46.6 µM; in assay [3], above 68.5 µM; in [4] it was above 100 µM; in assay [10], above 31.6 µM; in assay [5], above 100 µM. Further, the results for the TGI in assay [6], in [8] and in assay [9] were 76.7 µM, 77.6 µM and 54.7 µM, respectively.

Turning to `CCOC(=O)c1c(N2CCCC2)ncn(Cc2ccccc2)c1=S`, the TGI in assay [1], in assay [2], in assay [3], in [4], in assay [10] and in assay [5] was above 100 µM throughout. The TGI in [7], in [8] and in assay [9] was above 100 µM each time.

For `Cc1c(NC(=O)CSC(=S)N2CCN(Cc3ccccc3)CC2)c(=O)n(-c2ccccc2)n1C`, the TGI in assay [1], in assay [2], in [3], in assay [4], in [10] and in [5] was above 100 µM throughout. Moreover, the TGI in [6], in assay [8] and in [9] was above 100 µM throughout.

On to `COc1ccc(-c2cc(-c3cc4cc(Br)ccc4nc3Cl)c(C#N)c(N)n2)cc1`, for which the TGI in assay [1], in assay [3], in assay [4], in [10], in [5] and in [6] was above 12.5 µM in each case. Also, the TGI in assay [7], in [8] and in [9] was above 12.5 µM throughout.

For the compound `COC(=O)C(CSSC[C@H](N/C(C)=C/C(C)=O)C(=O)OC)N/C(C)=C/C(C)=O` (stereo partly drawn), the TGI in assay [1] is above 100 µM; in assay [2], above 100 µM; in assay [3] it was above 100 µM; in assay [4], above 100 µM; in assay [5], above 100 µM; in assay [6], 88.6 µM. Also, the TGI in assay [7] and in [9] was above 100 µM in each case.

As for `CCCC(=O)NC(Nc1ccc(S(=O)(=O)Nc2nc(C)cc(C)n2)cc1)(C(F)(F)F)C(F)(F)F`, the TGI in [1], in assay [2], in [3], in assay [4], in assay [10] and in [5] was above 100 µM in each case. Further, the TGI in assay [7], in [8] and in assay [9] was above 100 µM in each case.

Take `CC(=O)Oc1c2oc3ccc(Cl)cc3c(=O)c2c(O)c2ccsc12`: the TGI in [1], in [2], in [3], in assay [4], in [5] and in assay [6] was above 100 µM in each case. Further, the TGI in assay [7], in [8] and in [9] was above 100 µM throughout.

`O=c1c2cc(I)ccc2nc(-c2cccs2)n1-c1ccc(O)cc1`: the TGI in assay [1] is 49.1 µM; in assay [3], 40.7 µM; in assay [4], 38.8 µM; in assay [10], above 100 µM; in [5] it was 35.9 µM; in [6], 32.8 µM. Besides, the results for the TGI in [7], in assay [8] and in [9] were 26.9 µM, 26.1 µM and 29.9 µM, respectively.

For the compound `COc1ccc(C(=O)/C=C/c2c(Cl)c3c(c(OC)c2Cl)OCC(=O)N3)cc1`, the GI50 was 2.56 µM in assay [1]; 1.15 µM in assay [10]; 7.08 µM in assay [5]; 2.32 µM in assay [6]; 2.44 µM in assay [7]; 2.01 µM in assay [8]. Besides, in [9], the GI50 was 2.19 µM. Besides, the TGI was 8.04 µM in [1]; 7.45 µM in assay [10]; above 100 µM in [5]; above 100 µM in assay [6]; 8.88 µM in assay [7]; 6.14 µM in assay [8]. This compound came in with a TGI in assay [9] of 5.94 µM.

`N#Cc1ccccc1-c1nc2c3c(c(N)ccc3n1)C(=O)c1ccccc1-2`: the TGI in assay [1], in [2], in assay [3], in [4], in [5] and in assay [6] was above 100 µM throughout. Besides, the TGI in assay [7], in assay [8] and in assay [9] was above 100 µM each time.
